Data from US4038395A, “Compositions of and method of treating with the alpha-isomer of 2-chloro-9-[3'-(N'-2-hydroxyethylpiperazino-N)-propylidene]-thiaxanthene , carboxylic acid esters thereof and acid addition salts of these compounds” (Kefalas A/S, priority 1973, dated 1977).
Counter-ions that a name gives are not always drawn. Like-named read-outs stand apart in the source and are kept apart here.

How the values were obtained:
[1] = tested on: apomorphine-induced vomiting in dogs; experiment: Apomorphine antagonism in dogs (vomiting); format: in vivo, Adult purebred Beagles
Experimental: Adult purebred Beagles of either sex from our own stock were used.
Four dogs were used for each dose level of the drug, which was injected subcutaneously at the back of the neck. At different times after the drug administration the dogs were then challenged with apomorphine according to an "up and down"-schedule using the dose-range 25-400 μg/kg i.v. geometrically spaced. […] In this way it was possible to estimate at which level of apomorphine the dogs were protected at a given time. The dogs were fed half an hour before testing to secure an easy vomiting act.

human beings = experiment: Administration to human beings (neuroleptic action); format: in vivo; settings: single intramuscular injection of about 20 - 100 mg in a light vegetable oil
Text: Alpha-clopenthixol or an ester thereof and the non-toxic acid addition salts thereof (in the following collectively called "active ingredients") may be administered to animals such as dogs, cats, horses, sheeps or the like, including human beings, both orally and parenterally, and may be used for example in the form of tablets, capsules, powders, syrups or in the form of the usual sterile solutions for injection. Results upon administration to human beings have been very gratifying.
Results upon administration to human beings of the compositions of the invention have been very gratifying. Preferably, however, the compositions are in the form of sterile solutions or suspensions for injection, and in a preferred embodiment of the invention injectable solutions may be prepared from a non-toxic injectable fat or oil, e.g. light vegetable oil, sesam oil, olive oil, arachis oil or ethyl oleate, and they may additionally contain gelling agents, e.g. aluminium stearate, to delay absorption within the body. Such oily solutions have a very prolonged activity when […] intramuscularly, and satisfactory neuroleptic action has been produced by a single intramuscular injection of about 20 - 100 mg of Lu 8- 008 dissolved in a light vegetable oil for as long as 2-4 weeks.

[2] = tested on: apomorphine-induced gnaw-compulsion; experiment: Apomorphine antagonism in rats (gnaw-compulsion); format: in vivo, male rats (Wistar/Af/Han/Mo)(Han 67) SPF; settings: for ED50: apomorphine 10 mg/kg s.c. 2 h later
Text: (§1) Alpha-clopenthixol and its decanoic acid ester have been tested for neuroleptic activity with standard reliable test methods. In the testing alpha- and beta-clopenthixol (alpha-CPT and beta-CPT) have been compared with a sample of clopenthixol (CPT) containing 34% alpha-CPT as determined by I.R. spectrophotometry.
The test method used is a slight modification of the test described by Janssen, P.A.J., Niemegeers, C.J.E. and Schellekens, K.H.L., Arzneimittel-Forschung, 1965, 15, 104-117. Male rats (Wistar/Af/Han/Mo)(Han 67) SPF, 230-270 g) were given test substance intraperitoneally (9 animals per group). Two hours later apomorphine (10 mg/kg) was injected subcutaneously and the animals were placed in individual cages for one hour. A cage consisted of a 30 cm high perspex box (12 × 25 cm), without bottom and lid, which during the experiment was placed on corrugated paper. […] Percentage non-biters was plotted on log-probit paper against dose and the ED50 was read from the diagram.

[3] = tested on: methylphenidate-induced stereotyped gnawing; experiment: Methylphenidate antagonism in mice (stereotyped gnawing); format: in vivo, male mice (NMRI/BOM SPF)
Text: as §1
Pedersen V. and A. V. Christensen: "Antagonism of methylphenidate-induced stereotyped gnawing in mice". Acta pharmacol. et toxicol. 1972, 31, 488-496.
Male mice (NMRI/BOM SPF, 18-25 g) were given an intraperitoneal dose of test compound. Two hours later 60 mg/kg of methylphenidate hydrochloride were injected subcutaneously, and immediately thereafter the animals were placed in cages, 2 mice in each cage, for 1 hour. The cages which during the experiment were placed on corrugated paper, are described under apomorphine antagonism on page 4. In this situation control mice, when given this dose of methylphenidate, will bite the corrugated paper (gnaw-compulsion). All compounds were tested at 5 dose levels using 5 pairs of mice per dose. Percentage non-biters was plotted on log.-probit paper against dose and approximate ED50 values were read from the diagrams.

mice = experiment: Acute toxicity upon intravenous injection in mice; format: in vivo, male mice (NMRI/BOM SPF); settings: i.v.; for LD50: fasted 24 hours
Experimental: (§2) Acute toxicity upon intravenous injection has been tested using groups of five male mice (NMRI/BOM SPF, 18-25 g), fasted for 24 hours. Three or four dose-levels were needed to determine LD50 values according to Miller and Tainter. Estimation of the ED50 and its error by means of logarithmicprobit graph paper.

[4] = Acute toxicity upon intravenous injection in mice; format: in vivo, male mice (NMRI/BOM SPF); settings: mouse, in vivo, iv, fasted 24 hours
Experimental: as §2

[5] = dogs, 10 mg/kg s.c., depot-preparation
[6] = dogs, both dose levels (10 and 20 mg/kg s.c.)
[7] = dogs, 10 mg/kg s.c., aqueous solution

What does the source list for CCCCCCCCCC(=O)OCCN1CCN(CCC=C2c3ccccc3Sc3ccc(Cl)cc32)CC1 [Lu 8-008, alpha-isomer of the decanoic acid ester of 2-chloro-9-[3'(N'-2-hydroxyethylpiperazino-N)-propylidene]-thiaxanthene]?
duration of protection against apomorphine ([1]; dogs, 10 mg/kg s.c.): 14 days; maximal level of protection (times threshold dose of apomorphine) ([1]; dogs, 10 mg/kg s.c., 5% solution): 2 times threshold; maximal level of protection (times threshold dose of apomorphine) ([1]; dogs, 10 mg/kg s.c., 10% solution): 4 times threshold; sedation [1, 5]: at no time displayed any signs of sedation; time course of protection level [1, 5]: reached smoothly during the first week p.i., and then declined smoothly during the second week; prolongation of the protection against apomorphine, in words ([1]; dogs, 10 mg/kg s.c., depot-preparation, 5% or 10% solution): considerable prolongation of the protection against apomorphine; duration of protection against apomorphine ([1]; dogs, 20 mg/kg s.c., depot-preparation): 3 weeks; maximal level of protection (times threshold) ([1]; dogs, 20 mg/kg s.c., during the first week): 8 times threshold; sedation ([1]; dogs, 20 mg/kg s.c., first week): slightly sedated; duration of protection, 10% solution compared with 5% solution [1, 6]: the duration was equal; maximal protection, 10% solution compared with 5% solution [1, 6]: higher and/or more persisting maximal protection against apomorphine; duration of satisfactory neuroleptic action (human beings): 2-4 weeks

What does the source list for OCCN1CCN(CCC=C2c3ccccc3Sc3ccc(Cl)cc32)CC1 [alpha-CPT, alpha-isomer of 2-chloro-9-[3'-(N'-2-hydroxyethylpiperazino-N)-propylidene]-thiaxanthene]?
activity relative to CPT (times more active) ([2]; i.p., vs CPT): 2- 3 times; activity relative to CPT ([3]; i.p., vs CPT (containing 34% alpha-CPT)): about twice as active as CPT

Which results are given for OCCN1CCN(CCC=C2c3ccccc3Sc3ccc(Cl)cc32)CC1 [beta-CPT 2 HCl]?
% Non-biters ([2]; 10 mg/kg i.p., 10 mg/kg): 11%; % Non-biters ([2]; 20 mg/kg i.p.): 0%; % Non-biters ([2]; 40 mg/kg i.p.): 11%; % Non-biters ([2]; 80 mg/kg i.p.): 11%; ED50 ([2]; i.p.): none; % Non-biters ([3]; 5 mg/kg i.p., 5 mg/kg): 60%; % Non-biters ([3]; 10 mg/kg i.p.): 20%; % Non-biters ([3]; 20 mg/kg i.p.): 100%; % Non-biters ([3]; 40 mg/kg i.p.): 80%; % Non-biters ([3]; 80 mg/kg i.p.): 80%; LD50 (mice): 134 ± 10 mg/kg i.v.

What does the source list for OCCN1CCN(CCC=C2c3ccccc3Sc3ccc(Cl)cc32)CC1 [beta-CPT, beta-isomer of 2-chloro-9-[3'-(N'-2-hydroxyethylpiperazino-N)-propylidene]-thiaxanthene]?
apomorphine antagonism, in words ([2]; doses as high as 80 mg/kg i.p.): almost completely inactive; inhibition of methylphenidate-induced compulsive gnawing, in words ([3]; 20 mg/kg i.p.): complete inhibition; inhibition of methylphenidate-induced compulsive gnawing, in words ([3]; doses higher and lower than 20 mg/kg i.p.): only partial inhibition; acute toxicity compared, in words (mice; vs alpha-isomer and the mixture): somewhat less toxic than the alpha-isomer and the mixture

With OCCN1CCN(CCC=C2c3ccccc3Sc3ccc(Cl)cc32)CC1 [alpha-CPT 2 HCl, alpha-isomer of 2-chloro-9-[3'-(N'-2-hydroxyethylpiperazino-N)-propylidene]-thiaxanthene] as the compound, how does the “% Non-biters” value ([2]; 1.25 mg/kg i.p.) read?
The value was 11%.

What about the “% Non-biters” value ([2]; 2.5 mg/kg i.p.) of the same compound?
The value was 44%.

What about the “% Non-biters” value ([2]; 5 mg/kg i.p.) of the same compound?
Its value is 100%.

What about the “% Non-biters” value ([2]; 10 mg/kg i.p., 10 mg/kg) of the same compound?
Its value is 100%.

And the ED50 ([2]; Rattus norvegicus, ip, read-out: ED50)?
The ED50 was 2.4 mg/kg.

And the “% Non-biters” value ([3]; 0.31 mg/kg i.p.)?
The value was 20%.

And the “% Non-biters” value ([3]; 0.63 mg/kg i.p.)?
Its value is 60%.

What about the “% Non-biters” value ([3]; 1.25 mg/kg i.p.) of the same compound?
The value was 60%.

And the “% Non-biters” value ([3]; 2.5 mg/kg i.p.)?
The value was 100%.

And the “% Non-biters” value ([3]; 5 mg/kg i.p., 5 mg/kg)?
Its value is 100%.

What about the ED50 ([3]; Mus musculus, ip, methylphenidate hydrochloride 60 mg/kg s.c. 2 h later, read-out: ED50 (approximate)) of the same compound?
The ED50 was 0.65 mg/kg.

And the LD50 [4]?
Its LD50 is 105 ± 10 mg/kg.

With Cl.Cl.OCCN1CCN(CCC=C2c3ccccc3Sc3ccc(Cl)cc32)CC1 [CPT 2 HCl, 2-chloro-9-[3'-(N'-2-hydroxyethylpiperazino-N)-propylidene]-thiaxanthene] as the compound, how does the “% Non-biters” value ([2]; 2.5 mg/kg i.p.) read?
Its value is 33%.

And the “% Non-biters” value ([2]; 5 mg/kg i.p.)?
Its value is 44%.

And the “% Non-biters” value ([2]; 10 mg/kg i.p.)?
Its value is 67%.

And the “% Non-biters” value ([2]; 20 mg/kg i.p.)?
Its value is 78%.

And the ED50 ([2]; i.p.)?
The ED50 was 5.5 mg/kg i.p.

What about the “% Non-biters” value ([3]; 0.63 mg/kg i.p.) of the same compound?
Its value is 20%.

And the “% Non-biters” value ([3]; 1.25 mg/kg i.p.)?
Its value is 60%.

And the “% Non-biters” value ([3]; 2.5 mg/kg i.p.)?
The value was 80%.

And the “% Non-biters” value ([3]; 5 mg/kg i.p.)?
The value was 100%.

What about the “% Non-biters” value ([3]; 10 mg/kg i.p.) of the same compound?
The value was 100%.

What about the “ED50 (approximate)” value ([3]; i.p., methylphenidate hydrochloride 60 mg/kg s.c. 2 h later) of the same compound?
The value was 1.2 mg/kg i.p.

What about the LD50 (mice) of the same compound?
Its LD50 is 111 ± 10 mg/kg i.v.

And the “duration of protection against apomorphine” value ([1]; dogs, 10 mg/kg s.c.)?
Its value is 3 days.

And the “duration of heavy sedation” value [1, 7]?
The value was “about 24 hours”.

What about the “time p.i. at which maximal protection against apomorphine was afforded” value [1, 7] of the same compound?
Its value is 4 h.

And the “maximal level of protection against apomorphine (times threshold)” value ([1]; dogs, 10 mg/kg s.c., aqueous solution, 4 hours p.i.)?
The value was “about 16 times threshold”.

And the “protection against apomorphine at day 3” value ([1]; dogs, 10 mg/kg s.c., aqueous solution, day 3)?
The value was “restricted to the threshold dose of apomorphine”.

What about the “protection against apomorphine at day 4” value ([1]; dogs, 10 mg/kg s.c., aqueous solution, day 4) of the same compound?
The value was “returned to control level”.

What about the sedation ([1]; dogs, 10 mg/kg s.c., aqueous solution, from 4 h p.i.) of the same compound?
The sedation was “heavily sedated”.

With CN1CCc2cccc3c2[C@H]1Cc1ccc(O)c(O)c1-3 [apomorphine] as the compound, how does the minimal effective dose ([1]; Canis lupus familiaris, iv, Beagle dogs, read-out: threshold-dose of apomorphine for provoking vomiting) read?
The minimal effective dose was 0.025 mg/kg.
